{"source": "ChEMBL document CHEMBL1152311", "about": "“A multipronged approach to the study of peruvian ethnomedicinal plants: a legacy of the ICBG-Peru Project” (J Nat Prod, 2009)", "test_system": "Mycobacterium tuberculosis", "assay": "Antituberculosis activity against multidrug-resistant Mycobacterium tuberculosis", "type": "functional, organism-based"}
{"compound": "C[C@H](C/C=C\\C(C)(C)OO)[C@H]1CC[C@@]2(C)[C@@H]3CC[C@H]4C(C)(C)[C@@H](O)CC[C@@]45C[C@@]35CC[C@]12C", "values": [{"measurement": "IC50", "value": 27.3, "unit": "µM"}]}
